Measured values published in paper PMC9286291, “A new adenine nucleotide transporter located in the ER is essential for maintaining the growth of Toxoplasma gondii” (PLoS Pathogens, 2022).

Experiments:
[1] = molecular target: T1, PfANT (Plasmodium falciparum, UniProt Q8IIM9); experiment: inhibition of [α-32P]ATP uptake into intact E. coli cells; assay type: cell-based; conditions: 25 nM [α-32P]ATP, unlabelled competitor at 100-fold concentration, 15 min, 30 °C, 50 mM potassium phosphate pH 7.0
T1 construct: gene PF3D7_1113300; expressed in the plasma membrane of intact IPTG-induced E. coli from an encoding plasmid
T1 sequence (Q8IIM9 1-343): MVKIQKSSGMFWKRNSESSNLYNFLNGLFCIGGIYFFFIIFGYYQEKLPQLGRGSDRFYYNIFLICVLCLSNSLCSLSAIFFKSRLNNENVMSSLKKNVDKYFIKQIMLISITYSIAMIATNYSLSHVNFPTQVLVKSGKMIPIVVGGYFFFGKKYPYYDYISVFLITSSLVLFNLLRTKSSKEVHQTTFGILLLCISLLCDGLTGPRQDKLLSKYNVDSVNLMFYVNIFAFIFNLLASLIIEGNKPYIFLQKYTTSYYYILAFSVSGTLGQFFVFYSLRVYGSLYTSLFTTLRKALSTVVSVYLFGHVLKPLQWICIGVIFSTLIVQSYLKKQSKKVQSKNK
Text: inhibition of [α-32P]ATP uptake into intact E. coli cells on PfANT

[2] = molecular target: T2, TgANT (Toxoplasma gondii, UniProt A0A7J6KCX5); experiment: as above; assay type: cell-based; conditions: 25 nM [α-32P]ATP, unlabelled competitor at 100-fold concentration, 15 min, 30 °C, 50 mM potassium phosphate pH 7.0
T2 construct: gene TGRH88_003770; codon-optimised CDS in pET16b, expressed in the plasma membrane of intact E. coli BL21 (DE3); HA tag in the IFA construct
T2 sequence (A0A7J6KCX5 1-413): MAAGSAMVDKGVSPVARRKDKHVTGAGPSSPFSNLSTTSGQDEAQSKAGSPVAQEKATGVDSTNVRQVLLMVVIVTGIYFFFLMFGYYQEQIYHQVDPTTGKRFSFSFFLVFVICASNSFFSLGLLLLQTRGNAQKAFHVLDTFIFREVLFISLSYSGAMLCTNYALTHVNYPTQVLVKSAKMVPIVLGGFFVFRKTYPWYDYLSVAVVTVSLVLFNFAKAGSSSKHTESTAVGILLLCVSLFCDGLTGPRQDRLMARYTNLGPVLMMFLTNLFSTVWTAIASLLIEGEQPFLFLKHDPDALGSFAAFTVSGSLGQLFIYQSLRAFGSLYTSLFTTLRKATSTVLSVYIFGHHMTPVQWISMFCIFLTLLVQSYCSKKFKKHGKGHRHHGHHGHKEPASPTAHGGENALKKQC
Text: inhibition of [α-32P]ATP uptake into intact E. coli cells on TgANT

Row | SMILES | Uptake(% of control) [1] | Uptake(% of control) [2]
1 | Nc1ncnc2c1ncn2[C@@H]1O[C@H](COP(=O)(O)OP(=O)(O)OP(=O)(O)O)[C@@H](O)[C@H]1O [ATP] | 23.8 ±1.4 % of control | 3.4 ±0.25 % of control
2 | Nc1ncnc2c1ncn2[C@@H]1O[C@H](COP(=O)(O)OP(=O)(O)O)[C@@H](O)[C@H]1O [ADP] | 28.9 ±3.8 % of control | 3.9 ±0.31 % of control
